Values of other authors, collected in patent publication US20040009212A1, “Mucoadhesive thermoresponsive medicament-carrier composition” (PHARMA POWER BIOTEC CO. LTD., priority 2002, published 2004).

Tested on: leukoplakia
Conditions: of 12 leukoplakia patients

For `NCC(=O)CCC(=O)O` [ALA, 5-aminolevulinic acid], the patients having response (topical ALA in 20wt. % eucerin with arabic gum and paraffin, with PDT) is given as 9 patients and the “patients having full response” value (topical ALA with PDT) is given as 5 patients.
